What was measured:
blood D-glucose = experiment: Glucagon eye drops with surfactant, blood D-glucose; details: 0.5% surfactant plus glucagon (30 μg) eye drops
Protocol: Glucagon absorption from the eye was measured in rats given eye drops containing various surfactants plus glucagon (30 μg) (Eli Lilly, Indianapolis, Ind.) by monitoring an elevation in blood D-glucose levels. In these experiments, rats were anesthetized with sodium pentobarbital rather than xylazine/ketamin.
Paired animals that receive eye drops containing the surfactant alone, or glucagon alone, were compared to animals receiving eye drops with the surfactant plus glucagon.

blood glucose [1] = experiment: Insulin eye drops with absorption enhancer in xylazine/ketamine anesthetized rats, blood glucose
food intake = details: injection; cited from earlier work
[2] = no alkylsaccharide, cited from earlier work
[3] = test system: Aspergillus niger (ATCC No. 16404); experiment: Log reduction of microorganisms in cultures with alkylglycoside; format: cell-based; details: for Log reduction of cultures: PBS pH 7, 1 mg/mL PYY; for Log reduction of microorganisms: PBS pH 7, […] BSA
Excerpt: (§1) 20110-2209. The viable microorganisms used in the invention were not more than five passages removed from the original ATCC culture. As described herein, one passage is defined as the transfer of organisms from an established culture to fresh medium and all transfers are counted.
(§2) The culture conditions for the inoculum culture is substantially as described in Table IV. For example, suitable media can include but is not limited to, Soybean-Casein Digest or Sabouraud Dextrose Agar Medium. […]
(§3) The suspension should be refrigerated if it is not used within 2 hours. To confirm the initial cfu per mL estimate, the number of cfu per mL in each suspension was determined using the conditions of media and microbial recovery incubation times listed in Table IV (e.g., from about 3 to about 7 days). This value serves to calibrate the size of inoculum used in the test. The bacterial and yeast suspensions were used within 24 hours of harvest; whereas the fungal preparation can be stored under refrigeration for up to 7 days.
(§4) To determine which alkylglycoside formulations have antibacterial activity, the formulations were prepared in phosphate buffered saline (PBS) at pH 7. As a source of nutrition, either 1.5 mg/mL bovine serum albumin (BSA; see Tables V and VI) or 1 mg/mL of PYY was added (see Table VII) to the medium. BSA (CAS Number: 9048-46-8) was obtained from Sigma-Aldrich, St. Louis, Mo., USA, n-dodecyl-4-O-α-D-glucopyranosyl-β-D-glucopyranoside and n-tetradecyl-4-O-α-D-glucopyranosyl-β-D-glucopyranoside were obtained from Anatrace Inc., Maumee, Ohio, USA, and PYY was obtained from Bachem California Inc., Torrance, Calif., USA.
(§5) Antibacterial activity of the alkylglycosides were conducted in four sterile, capped bacteriological containers of suitable size into which a sufficient volume of alkylglycoside solution had been transferred. Each container was inoculated with one of the prepared and standardized inoculums and mixed. The volume of the suspension inoculum was between about 0.5% and about 1.0% of the volume of the alkylglycoside solution. […]. To determine the level of inhibition of growth, or reduction of growth based on a logarithmic scale, the initial concentration of viable microorganisms in each test preparation was estimated based on the concentration of microorganisms in each of the standardized inoculum as determined by the plate-count method. The inoculated containers were then incubated at about 22.5° C.±2.5. The growth or non-growth of the microorganisms in each culture/container were again determined at day 14 and day 28. The number of cfu present in each calculation was determined by the plate-count procedure standard in the art for the applicable intervals. The change in the orders of magnitude of bacterium and/or fungi was then determined by subtracting the first calculated log 10 values of the concentrations of cfu per mL present at the start or beginning (e.g., day 0), from the log 10 values of the concentration of cfu per mL for each microorganism at the applicable test intervals (e.g., day 14 and day 28; see Tables V, VI and VII).

[4] = test system: Escherichia coli (ATCC No. 8739); experiment: as above; format: cell-based; details: for Log reduction of cultures: PBS pH 7, 1 mg/mL PYY
Excerpt: as §1, §2, §3, §4, §5

[5] = test system: Candida albicans (ATCC No. 10231); experiment: as above; format: cell-based; details: for Log reduction of cultures: PBS pH 7, 1 mg/mL PYY; for Log reduction of microorganisms: PBS pH 7, […] BSA
Excerpt: as §1, §2, §3, §4, §5

[6] = test system: Staphylococcus aureus (ATCC No. 6538); experiment: as above; format: cell-based; details: for Log reduction of cultures: PBS pH 7, 1 mg/mL PYY; for Log reduction of microorganisms: PBS pH 7, […] BSA
Excerpt: as §1, §2, §3, §4, §5

[7] = Oral phenylephrine tablets with alkylsaccharide; format: in vivo, canine
Protocol: In a canine model, subjects were dosed orally with various phenylephrine (PE) tablet formulations, and blood samples were taken to determine the rate of parent phenyl ethyl phenylephrine absorption. Blood levels of parent phenylephrine were measured. Three subject groups were created with each alkylsaccharide test group containing five subjects in each test group. All subject groups received 10 mg of phenylephrine as a single tablet. Each subject was in the fasting state for overnight and two hours post dose. Blood samples were taken at pre-dose, 5, 10, 15, 30, 45 min., 1, 2, and 3 hours.
Comparator was the standard 30 mg (total weight including excipients) phenylephrine tablet was no absorption enhancer. Group number 2 tablets contain the alkylsaccharide designated A3, which is n-dodecyl-beta-D-maltoside in the amounts of 2.5 mg, 5 mg, and 7.5 mg, respectively. Group number three tablets contain the alkylsaccharide designated B3, which is sucrose monododecanoate, in the amounts of 5 mg, 10 mg, and 20 mg, respectively.

human nasal epithelium = experiment: Irritation of nasal mucosa on daily intranasal administration; details: 47 days
blood glucose [8] = experiment: Intranasal insulin with […] TDM in anesthesia-induced hyperglycemia model; format: in vivo, mouse; details: minus […] TDM
Excerpt: Intranasal administration of drugs or agents are possible in animal models e.g. mice and rats, although the nasal opening in is very small. In the experiments and results described herein, an anesthesia-induced hyperglycemia model was used (described in Examples above). Hyperglycemic animals were induced by an intraperitoneal (IP) injection containing xylazine-ketamine and blood glucose levels were monitored over a period of time. Immediately after the xylazine-ketamine injection, there was an increase in the blood glucose levels as shown in FIG. 2 (closed dark circles), and blood glucose levels were about 450 mg/dl. […] Blood glucose levels peak to about 482 mg/dl by 30 minutes after the xylazine-ketamine injection (FIG. 2). […] At about the 75 minute time point, blood glucose levels gradually returned to the baseline level in a normoglycemic mouse, or about 80-100 mg/dl.

**Q.** Which “level of D-glucose in blood after eye drops with surfactant plus glucagon, in words” value (blood D-glucose) does the source give for `CCCCCCCCCCO[C@@H]1O[C@H](CO)[C@@H](O[C@H]2O[C@H](CO)[C@@H](O)[C@H](O)[C@H]2O)[C@H](O)[C@H]1O` [Decyl Maltoside, decyl-β-D-maltoside] here?
**A.** increase significantly

**Q.** And the “effect as absorption enhancer for ocular insulin (blood glucose lowering), in words” value (“effect … (blood glucose lowering), in words” for short) (blood glucose [1]; 0.5% enhancer)?
**A.** prompt and sustained fall in blood glucose levels

**Q.** For “PYY: gut hormone fragment peptide PYY3-36”, which “reduction of food eaten versus usual” value (food intake) is on record?
**A.** 30%

**Q.** What does the source list for `Cc1cc2c(s1)Nc1ccccc1N=C2N1CCN(C)CC1` [olanzapine, Olanzapine]?
**A.** time to peak concentrations ([2]; following an oral dose): approximately 6 hours; dose metabolized by first pass before reaching the systemic circulation [2]: approximately 40%

**Q.** Which “effect … (blood glucose lowering), in words” value (blood glucose [1]; 0.5% enhancer) does the source give for `CCCCCCCOC1O[C@H](CO)[C@@H](O)[C@H](O)[C@H]1O` (stereo partly shown) [heptylglucoside, heptylglucopyranoside] here?
**A.** ineffective

**Q.** For `CCCCCCCCCCCCO[C@@H]1O[C@H](CO)[C@@H](O[C@H]2O[C@H](CO)[C@@H](O)[C@H](O)[C@H]2O)[C@H](O)[C@H]1O` [Dodecyl Maltoside, n-Dodecyl-4-O-α-D-glucopyranosyl-β-D-glucopyranoside], which “Log reduction of cultures” value ([3]; Day 14) is on record?
**A.** 4.7 orders of orders of magnitude reduction

**Q.** And the “Log reduction of cultures” value ([3]; Day 28)?
**A.** 4.7 orders of orders of magnitude reduction

**Q.** And the “Log reduction of microorganisms” value ([3]; Day 14)?
**A.** 0.7 orders of orders of magnitude reduction

**Q.** What about the “Log reduction of microorganisms” value ([3]; Day 28) of the same compound?
**A.** No growth

**Q.** What about the “Log reduction of cultures” value ([4]; Day 14) of the same compound?
**A.** ≧5 orders of orders of magnitude reduction

**Q.** What about the “Log reduction of cultures” value ([4]; Day 28) of the same compound?
**A.** ≧5 orders of orders of magnitude reduction

**Q.** What about the “Log reduction of microorganisms” value ([4]; PBS pH 7, […] BSA, Day 28) of the same compound?
**A.** 0.1 orders of orders of magnitude reduction

**Q.** And the “Log reduction of cultures” value ([5]; Day 14)?
**A.** ≧4.5 orders of orders of magnitude reduction

**Q.** And the “Log reduction of cultures” value ([5]; Day 28)?
**A.** ≧4.5 orders of orders of magnitude reduction

**Q.** What about the “Log reduction of microorganisms” value ([5]; Day 14) of the same compound?
**A.** 3.0 orders of orders of magnitude reduction

**Q.** What about the “Log reduction of microorganisms” value ([5]; Day 28) of the same compound?
**A.** ≧5.3 orders of orders of magnitude reduction

**Q.** What about the “Log reduction of cultures” value ([6]; Day 14) of the same compound?
**A.** ≧4.9 orders of orders of magnitude reduction

**Q.** And the “Log reduction of cultures” value ([6]; Day 28)?
**A.** ≧4.9 orders of orders of magnitude reduction

**Q.** What about the “Log reduction of microorganisms” value ([6]; Day 14) of the same compound?
**A.** ≧5.2 orders of orders of magnitude reduction

**Q.** What about the “Log reduction of microorganisms” value ([6]; Day 28) of the same compound?
**A.** ≧5.2 orders of orders of magnitude reduction

**Q.** And the “effect … (blood glucose lowering), in words” value (blood glucose [1]; 0.5% enhancer)?
**A.** equally effective

**Q.** And the “effect … (blood glucose lowering), in words” value (blood glucose [1]; 0.5% enhancer, listed as dodecyl-β-D-maltoside)?
**A.** prompt and sustained fall in blood glucose levels

**Q.** And the “increase of oral bioavailability of phenylephrine in compressed tablets” value ([7]; dog, in vivo, po)?
**A.** up to 56%

**Q.** Which results are given for decylsucrose?
**A.** Blood Glucose Concentration (blood glucose [1]; eye drops insulin + 0.5% enhancer, time 0 min): 313 mg/dL; Blood Glucose Concentration (blood glucose [1]; eye drops insulin + 0.5% enhancer, time 120 min): 164 mg/dL

**Q.** Which results are given for `CCCCCCCCCCCC(=O)OC[C@H]1O[C@H](O[C@]2(CO)O[C@H](CO)[C@@H](O)[C@@H]2O)[C@H](O)[C@@H](O)[C@@H]1O` [sucrose dodecanoate, sucrose monododecanoate]?
**A.** irritation of the nasal mucosa (human nasal epithelium): no observable irritation; increase of oral bioavailability of phenylephrine in compressed tablets ([7]; maximum over the loadings tested): up to 50%

**Q.** With `CCCCCCOC1O[C@H](CO)[C@@H](O)[C@H](O)[C@H]1O` (stereo partly shown) [hexylglucoside, Hexylglucopyranoside] as the compound, how does the “effect … (blood glucose lowering), in words” value (blood glucose [1]; 0.5% enhancer) read?
**A.** ineffective

**Q.** What does the source list for “insulin alone: insulin (Humalog), same dosage, minus 0.25% TDM”?
**A.** return of blood glucose to normoglycemic levels (blood glucose [8]): never return to normoglycemic levels; time at which blood glucose levels start to decline (blood glucose [8]; same dosage): ~120 minute time mark

**Q.** For `CCCCCCCCCOC1O[C@H](CO)[C@@H](O)[C@H](O)[C@H]1O` (stereo partly shown) [nonylglucoside, nonylglucopyranoside], which “effect … (blood glucose lowering), in words” value (blood glucose [1]; 0.5% enhancer) is on record?
**A.** effectively stimulated insulin absorption

**Q.** What about the “blood glucose level before reduction (from)” value (blood glucose [1]; eye drops insulin + 0.5% enhancer, initial value) of the same compound?
**A.** 297 mg/dL

**Q.** And the “blood glucose level after reduction (to)” value (blood glucose [1]; eye drops insulin + 0.5% enhancer, reduced value)?
**A.** 150 mg/dL

**Q.** Which results are given for `CCCCCCCCCCCCCO[C@@H]1O[C@H](CO)[C@@H](O[C@H]2O[C@H](CO)[C@@H](O)[C@H](O)[C@H]2O)[C@H](O)[C@H]1O` [Tridecyl Maltoside, tridecyl-β-D-maltoside]?
**A.** level of D-glucose in blood after eye drops with surfactant plus glucagon, in words (blood D-glucose): increase significantly; effect as absorption enhancer for ocular insulin (blood glucose lowering), in words (blood glucose [1]; 0.5% enhancer): effective; effect as absorption enhancer for ocular insulin (blood glucose lowering), in words (blood glucose [1]; […] enhancer): sustained for the two hour time course of the experiment
